Laboratory results published in PubChem BioAssay AID1645848.
In brackets after ≈: the same amount, converted by molar mass.

Settings: buffer; pH 7.4; 6.0 h; 150.0 µM

SMILES	solubility kinetic
Nc1nc2c(s1)C(c1c(Cl)cccc1Cl)CC(=O)N2 (centres undefined)	< 1 µg/mL
Cc1ccc(S(=O)(=O)n2cc(C(=O)Nc3ccc(-c4ccccc4)cc3)c3ccccc32)cc1	< 1 µg/mL
Cc1ccc(S(=O)(=O)Nc2ccc(C(=O)Nc3nc(-c4ccc(Cl)cc4)cs3)cc2)cc1	< 1 µg/mL
CC(C)(C)OC(=O)N1CCN(c2ccc(NCc3ccc(-c4ccc(C#N)cc4)o3)cc2)CC1	9.31 µg/mL (≈ 20.3 µM)
CCOc1ccc(CCNC(=O)c2ccc(Oc3ccccc3)cc2)cc1OCC	< 1 µg/mL
Nc1ccccc1OCCn1c(CCNC(=O)C2CCCCC2)nc2ccccc21	44.5 µg/mL (≈ 109 µM)
Cn1c(=O)c2[nH]c(=O)[nH]c2n(C)c1=O	> 29 µg/mL
CCOc1ccc(/C=C/c2nc3ccccc3n2S(=O)(=O)c2cccc(Cl)c2)cc1	0.035 µg/mL (≈ 0.0797 µM)
Nc1nc2c(s1)C(c1ccc(Br)cc1)CC(=O)N2 (centres undefined)	6.66 µg/mL (≈ 20.6 µM)
CC1=C(C(=O)Nc2nncs2)C(c2ccccc2Br)N=C(Nc2nc3ccccc3o2)N1 (centres undefined)	< 1 µg/mL
O=c1cc(-c2nc(Nc3ccc(F)c(F)c3)c3ccccc3n2)cc[nH]1	11.9 µg/mL (≈ 34.1 µM)
Cc1ccccc1C(=O)Nc1nc2c(s1)CC(C(C)(C)C)CC2 (centres undefined)	< 1 µg/mL
Nc1ncc(S(=O)(=O)N2CCOCC2)s1	> 37 µg/mL
COc1cccc(C(=O)NCCSc2c(-c3ccc(F)cc3)[nH]c3ccccc23)c1OC	< 1 µg/mL
COc1ccc(Nc2cnc3ccc(-c4ccc(OC)c(OC)c4)nn23)cc1	< 1 µg/mL
Clc1ccc(-c2nc(-c3ccc(Br)o3)no2)c(Cl)c1	< 1 µg/mL
COc1ccccc1CNc1ccc(N2CCCCC2)cc1	12.9 µg/mL (≈ 43.5 µM)
CCOc1ccc(N2CC(c3nc(-c4ccccn4)no3)CC2=O)cc1 (centres undefined)	> 35 µg/mL
O=C(NCc1ccncc1)c1nc(-c2cccnc2)c2cnccn12	40.8 µg/mL (≈ 124 µM)
NC(=O)NCC(=O)N[C@H]1CC[C@H](Nc2nccc(-c3ccncc3)n2)C1	> 35 µg/mL
Fc1cccc(F)c1Nc1nc(-c2ccncc2)nc2ccccc12	< 1 µg/mL
COC(=O)CNC(=O)c1nc(-c2ccccc2OC)c2ccccn12	> 60 µg/mL
COc1ccc(C)cc1-n1nnnc1Sc1ncnc2scc(-c3ccc(Br)cc3)c12	2.38 µg/mL (≈ 4.65 µM)
COc1ccc(C(=O)NC2CCN(c3cnn(CC4CC4)c(=O)c3)CC2)cc1	8.61 µg/mL (≈ 22.5 µM)
O=c1c2ccccc2nc2n1CCC2	> 27 µg/mL

SMILES	solubility kinetic
COc1ccc(C)cc1NC(=O)c1cnc(-c2ccc(F)cc2)nc1-c1ccncc1	< 1 µg/mL
CCOC(=O)C1CCN(C(=O)C(C)(C)NC(=O)Nc2ccc(-c3ccccc3)cc2)CC1	10.8 µg/mL (≈ 24.6 µM)
CC[C@H](Nc1ncnc2nc[nH]c12)c1nc2cccc(F)c2c(=O)n1-c1ccccc1	> 61 µg/mL
COc1ncc(-c2ccc3c(Nc4cc(Oc5cc(F)cc(F)c5)cc(C(=O)O)c4)c(S(=O)(=O)NC4CC4)cnc3c2)c(OC)n1	21.5 µg/mL (≈ 33.1 µM)
O=C(Cc1ccc(-c2csc(Nc3ccc(F)cc3)n2)s1)N1CCOCC1	2.31 µg/mL (≈ 5.73 µM)
COc1ccc(-c2nc3ccccc3c(=O)n2Cc2ccco2)cc1COc1ccc(NC(C)=O)cc1	2.35 µg/mL (≈ 4.74 µM)
COC(=O)c1ccccc1C(=O)Nc1nc(-c2ccccc2)cs1	7.61 µg/mL (≈ 22.5 µM)
CCOc1ccc(CCNC(=O)c2cc3sccc3n2Cc2ccccc2)cc1OCC	< 1 µg/mL
COc1ccc(CN2C(=O)[C@@H]3C[C@@H](CN3Cc3cccs3)Oc3ccccc32)cc1	2.52 µg/mL (≈ 5.99 µM)
O=C(Nc1ccc(F)cc1F)c1cc(-c2ccc[nH]2)n[nH]1	> 29 µg/mL
COc1cc(-c2nc(Cn3nnc(C(=O)Nc4cc(C)cc(C)c4)c3C)c(C)o2)cc(OC)c1OC	< 1 µg/mL
O=C(O)c1ccnc2cc(C(OCC3CCC(F)(F)CC3)c3ccccc3Cl)[nH]c12 (centres undefined)	> 64 µg/mL
Cc1cc(NC(=O)c2ccc(NC(=O)Cc3ccc(Cl)c(Cl)c3)cc2)no1	1.43 µg/mL (≈ 3.55 µM)
NC(=O)c1sc2nc3c(c(-c4cccs4)c2c1N)CCCC3	0.293 µg/mL (≈ 0.889 µM)
N=c1c2ccccc2nnn1-c1ccc(C(F)(F)F)cc1	< 1 µg/mL
c1ccc(Nc2cc(-c3ccoc3)ncn2)cc1	16.2 µg/mL (≈ 68.3 µM)
Br.CC(Cc1ccc(O)cc1)NCC(O)c1cc(O)cc(O)c1 (centres undefined)	> 45 µg/mL
COc1ccc(-c2cnc(N3CCC(C(N)=O)CC3)s2)cc1OC	18.8 µg/mL (≈ 54 µM)
CCc1ccc(S(=O)(=O)Nc2cnccc2C(=O)Nc2nc(-c3ccccc3)cs2)cc1	< 1 µg/mL
Cc1ccc(S(=O)(=O)Nc2ccccc2C(=O)Nc2ccc(-c3ccccc3)cn2)cc1	< 1 µg/mL
COc1cccc(CNc2ccc(S(=O)(=O)Nc3ccc(N4CCNCC4)nc3)cc2)c1O	55.9 µg/mL (≈ 119 µM)
CCOC(=O)C1CCN(C(=O)C2(NC(=O)Nc3ccc(F)cc3F)CCCCC2)CC1	41.8 µg/mL (≈ 95.6 µM)
CCCCCCN(CCCCCC)C(=O)Cc1c(-c2ccc(F)cc2)[nH]c2ccccc12	< 1 µg/mL
CN1CCN(C(c2ccccc2)c2ccccc2)CC1	> 39 µg/mL
CCOc1ccc(C2c3c(oc4ccc(C)cc4c3=O)C(=O)N2CCCN(C)C)cc1 (centres undefined)	> 62 µg/mL

SMILES	solubility kinetic
Cc1ccc(S(=O)(=O)Nc2cnccc2C(=O)Nc2ccc(S(=O)(=O)Nc3nccs3)cc2)cc1	> 63 µg/mL
Cc1ccc(-n2c(=O)c3oc4ccccc4c3n(CC(=O)Nc3ccc(F)c(Cl)c3)c2=O)cc1C	< 1 µg/mL
COc1ccc(C)cc1Nc1c2c(nc3ccccc13)CCC2	> 45 µg/mL
c1cc(-c2cc(-c3ccncc3)c3cncn3c2)c2cc[nH]c2c1	< 1 µg/mL
Cc1noc(C)c1Cc1ccc(C(=O)N2CCc3c(nc4cc(-c5ccccc5)[nH]n4c3=O)C2)o1	4.77 µg/mL (≈ 10.2 µM)
Cc1cc(C)c(C(=O)Nc2cccc([S+](=O)([O-])N3CCCCCC3)c2)[nH]1	< 1 µg/mL
O=c1cc(/C=C/c2c(F)cccc2Cl)[nH]c2ccccc12	1.73 µg/mL (≈ 5.77 µM)
NC(=O)C1CCN(c2nc(-c3ccc4occc(=O)c4c3)cs2)CC1	> 52 µg/mL
O=C(Nc1nc(-c2ccccc2)cs1)c1ccncc1NS(=O)(=O)c1ccc(F)cc1	45.8 µg/mL (≈ 101 µM)
O=C(NCC1CCOCC1)C1CC(=O)N(c2n[nH]c3cc(Br)ccc23)C1 (centres undefined)	25.3 µg/mL (≈ 60.1 µM)
COC(=O)[C@]12CCC(C)(C)C[C@H]1[C@H]1C(=O)C=C3[C@@]4(C)C=C(C#N)C(=O)C(C)(C)[C@@H]4CC[C@@]3(C)[C@]1(C)CC2	1.99 µg/mL (≈ 3.93 µM)
CC(C)c1ccc(-n2ncc3c(=O)n(CC(=O)Nc4cc(F)ccc4Cl)cnc32)cc1	< 1 µg/mL
Cc1nc2nc(NC(=O)c3ccc(C(C)(C)C)cc3)[nH]n2c(=O)c1Cl	14.7 µg/mL (≈ 40.8 µM)
COc1ccc(OC)c(Nc2c3c(nc4ccccc24)CCC3)c1	> 47 µg/mL
Cc1ccc(S(=O)(=O)Nc2cnccc2C(=O)NCc2ccccc2)cc1	> 56 µg/mL
Cc1ccc(S(=O)(=O)Nc2cc(F)ccc2C(=O)Nc2nc(-c3ccccc3)cs2)cc1	< 1 µg/mL
Cc1ccc(O)c(-c2cc(-c3ccccc3C)[nH]n2)c1	< 1 µg/mL
CC(C)c1ccccc1-c1nc(NCc2ccc(-c3cccnc3)cc2)c2ccccc2n1	< 1 µg/mL
Cc1nc(-c2ccco2)cc([C@H]2CN3CC[C@H]2C[C@@H]3CNC(=O)NC2CCCCC2)n1	> 63 µg/mL
COc1ccc(NC(=O)c2[nH]c(C)c(C(C)=O)c2C)cc1S(=O)(=O)N(C)C	3.68 µg/mL (≈ 9.34 µM)
Cc1ccc(S(=O)(=O)Nc2ccccc2CNc2nc(-c3ccccc3)cs2)cc1	< 1 µg/mL
Cc1nc([C@](C)(O)CO)sc1-c1cnc(N)c(O[C@H](C)c2cc(F)ccc2-n2nccn2)c1	37.3 µg/mL (≈ 79.2 µM)
COc1ccc(-c2ccc3nc(-c4cc(C)cc(C)c4)oc3c2)c(OC)c1OC	< 1 µg/mL
Cc1cnc(NC(=O)c2ccc(-c3cccc([N+](=O)[O-])c3)o2)s1	< 1 µg/mL
Cc1nc(N2CCN(c3ccccn3)CC2)c2c(C)c(C(=O)Nc3ccc(F)cc3Cl)sc2n1	< 1 µg/mL

SMILES	solubility kinetic
O=C(c1nc(-c2ccc(Cl)nc2)c2ccccn12)N1CCCC1	2.73 µg/mL (≈ 8.36 µM)
Cn1c(=O)cc(C(=O)NC2CCCc3c2[nH]c2c(Cl)cccc32)c2ccccc21 (centres undefined)	< 1 µg/mL
Cc1nn2c(c1-c1ccccc1-c1ccccc1)N(Cc1ccc(C(=O)O)s1)CCC2	> 63 µg/mL
COc1ccc(-n2nc(C)c([C@@H]3C=C[C@@H](NCc4ccc(N(C)C)cc4)C3)c2C)cc1	50.3 µg/mL (≈ 121 µM)
Fc1cccc(CN2CCNc3cc(Nc4ccccc4)ncc3C2)c1	27.3 µg/mL (≈ 78.3 µM)
Cc1cnc(-c2ccccc2C(C)C)nc1NCC1CCN(c2cccnc2)C1 (centres undefined)	7.52 µg/mL (≈ 19.4 µM)
Cc1ccc(NC(=O)c2c(N3CCCC3=O)c3cc(C)ccc3n2C)c(C)c1	< 1 µg/mL
CN(Cc1ccccc1)C(=O)c1ccc(S(=O)(=O)Nc2ccccc2)cc1	22.5 µg/mL (≈ 59.2 µM)
Cc1ccc(S(=O)(=O)Nc2cc(Br)ccc2C(=O)Nc2nc(-c3ccccc3)cs2)cc1	< 1 µg/mL
COc1ccc(-c2cc(-c3cccc4[nH]ncc34)cn3cncc23)cn1	5.52 µg/mL (≈ 16.2 µM)
Cc1ccc(C(=O)Nc2cccc(C(F)(F)F)c2)cc1Nc1nc(-c2cccnc2)nc2c1cnn2C	< 1 µg/mL
NC(=O)C1CCN(c2nc(-c3ccc([N+](=O)[O-])cc3)cs2)CC1	1.7 µg/mL (≈ 5.1 µM)
CCCc1cc(=O)oc2c3c(c4c(c12)OC(C)(C)C=C4)OC(C)C(C)C3O (centres undefined)	< 1 µg/mL
COc1cccc(CNc2ccc(S(=O)(=O)Nc3nc4ccccc4o3)cc2)c1O	> 63 µg/mL
CN1CCCC1CCOC(c1cc2nccc(C(=O)O)c2[nH]1)c1ccccc1Cl (centres undefined)	> 61 µg/mL
C#CCOc1ccc(-c2nnc(Nc3ccc(NC(C)=O)cc3)c3ccccc23)cc1	< 1 µg/mL
Nc1ccccc1CNc1ccc(S(=O)(=O)Nc2nccs2)cc1	> 53 µg/mL
NC(=O)C1CCN(c2nc(-c3cccc(F)c3)cs2)CC1	> 45 µg/mL
Cc1cc(-c2nnc3n2CCCCC3)c(C)n1-c1cccc(C#N)c1	> 49 µg/mL
O=C(O)c1ccc(-c2c[nH]c3ncc(-c4ccccc4)cc23)cc1C1CCCC1	7.57 µg/mL (≈ 19.8 µM)
CC(C)(O)/C=C\C(=O)[C@](C)(O)[C@H]1[C@H](O)C[C@]2(C)[C@@H]3CC=C4[C@@H](C=C(O)C(=O)C4(C)C)[C@]3(C)C(=O)C[C@@]12C	> 51 µg/mL
FC(F)(F)c1cccc(Nc2ccc(CNc3nc(-c4ccccc4C(F)(F)F)nc4ccccc34)cc2)c1	< 1 µg/mL
O=C1Cc2cc(C(=O)c3ccco3)ccc2N1	> 34 µg/mL
Cc1cccc(Nc2nc(NCc3ccco3)c3ccccc3n2)c1.Cl	< 1 µg/mL
